Reference: PubChem BioAssay (NCI)
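Assay format: 96-well plates, 48-hour exposure. The concentration for 50% growth inhibition is given as GI50. TGI denotes the concentration required for complete inhibition of growth.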

Experiments:
Assay in all cases: growth of human tumour cells (NCI), 48 h; in the data active = GI50 below about 0.43 µM; inactive = the rest
UO-31 renal = system: UO-31 renal
CAKI-1 renal = system: CAKI-1 renal
OVCAR-4 ovarian = system: OVCAR-4 ovarian
EKVX NSCLC = system: EKVX NSCLC
K-562 leukemia = system: K-562 leukemia
NCI-H460 lung = system: NCI-H460 lung
SK-MEL-5 melanoma = system: SK-MEL-5 melanoma
LOX IMVI melanoma = system: LOX IMVI melanoma
CCRF-CEM leukemia = system: CCRF-CEM leukemia
A549 NSCLC = system: A549 NSCLC
HL-60(TB) leukemia = system: HL-60(TB) leukemia
RXF 393 renal = system: RXF 393 renal
SF-295 CNS = system: SF-295 CNS
DU-145 prostate = system: DU-145 prostate
UACC-257 melanoma = system: UACC-257 melanoma
SK-MEL-28 melanoma = system: SK-MEL-28 melanoma
HOP-92 NSCLC = system: HOP-92 NSCLC
TK-10 renal = system: TK-10 renal
HT29 colon = system: HT29 colon
U251 CNS = system: U251 CNS
MOLT-4 leukemia = system: MOLT-4 leukemia
SNB-19 CNS = system: SNB-19 CNS
HCC-2998 colon = system: HCC-2998 colon
NCI-H522 lung = system: NCI-H522 lung
SK-OV-3 ovarian = system: SK-OV-3 ovarian
RPMI-8226 leukemia = system: RPMI-8226 leukemia
ACHN renal = system: ACHN renal
IGROV1 ovarian = system: IGROV1 ovarian
MDA-MB-231 breast = system: MDA-MB-231 breast
COLO 205 colon = system: COLO 205 colon
NCI-H23 lung = system: NCI-H23 lung
SF-539 CNS = system: SF-539 CNS
SN12C renal = system: SN12C renal
KM12 colon = system: KM12 colon
OVCAR-8 ovarian = system: OVCAR-8 ovarian
786-0 renal = system: 786-0 renal
HS 578T breast = system: HS 578T breast
MDA-MB-435 = system: MDA-MB-435
MCF7 breast = system: MCF7 breast
NCI/ADR-RES ovarian = system: NCI/ADR-RES ovarian
HCT-116 colon = system: HCT-116 colon
UACC-62 melanoma = system: UACC-62 melanoma
HOP-62 NSCLC = system: HOP-62 NSCLC
HCT-15 colon = system: HCT-15 colon
T-47D breast = system: T-47D breast
OVCAR-5 ovarian = system: OVCAR-5 ovarian
NCI-H226 lung = system: NCI-H226 lung
SK-MEL-2 melanoma = system: SK-MEL-2 melanoma
SNB-75 CNS = system: SNB-75 CNS
BT-549 breast = system: BT-549 breast
OVCAR-3 ovarian = system: OVCAR-3 ovarian
SR leukemia = system: SR leukemia
M14 melanoma = system: M14 melanoma
MALME-3M melanoma = system: MALME-3M melanoma
SF-268 CNS = system: SF-268 CNS
PC-3 prostate = system: PC-3 prostate
SW-620 colon = system: SW-620 colon

COC(=O)Cc1ccc(Oc2nc3ccccc3nc2-c2cccs2)cc1
92.2 µM: TGI (SK-OV-3 ovarian)
48.5 µM: TGI (RXF 393 renal)
24.7 µM: TGI (SNB-75 CNS)
> 100 µM: TGI (UO-31 renal) | TGI (CAKI-1 renal) | TGI (OVCAR-4 ovarian) | TGI (EKVX NSCLC) | TGI (K-562 leukemia) | TGI (NCI-H460 lung) | TGI (SK-MEL-5 melanoma) | TGI (LOX IMVI melanoma) | TGI (CCRF-CEM leukemia) | TGI (A549 NSCLC) | TGI (HL-60(TB) leukemia) | TGI (SF-295 CNS) | TGI (DU-145 prostate) | TGI (UACC-257 melanoma) | TGI (SK-MEL-28 melanoma) | TGI (TK-10 renal) | TGI (HT29 colon) | TGI (U251 CNS) | TGI (MOLT-4 leukemia) | TGI (SNB-19 CNS) | TGI (HCC-2998 colon) | TGI (NCI-H522 lung) | TGI (RPMI-8226 leukemia) | TGI (ACHN renal) | TGI (IGROV1 ovarian) | TGI (MDA-MB-231 breast) | TGI (COLO 205 colon) | TGI (NCI-H23 lung) | TGI (SF-539 CNS) | TGI (SN12C renal) | TGI (KM12 colon) | TGI (OVCAR-8 ovarian) | TGI (786-0 renal) | TGI (HS 578T breast) | TGI (MDA-MB-435) | TGI (MCF7 breast) | TGI (NCI/ADR-RES ovarian) | TGI (HCT-116 colon) | TGI (UACC-62 melanoma) | TGI (HOP-62 NSCLC) | TGI (HCT-15 colon) | TGI (T-47D breast) | TGI (OVCAR-5 ovarian) | TGI (SK-MEL-2 melanoma) | TGI (BT-549 breast) | TGI (OVCAR-3 ovarian) | TGI (SR leukemia) | TGI (M14 melanoma) | TGI (MALME-3M melanoma) | TGI (SF-268 CNS) | TGI (PC-3 prostate) | TGI (SW-620 colon)
63.3 µM: TGI (HOP-92 NSCLC)
99.8 µM: TGI (NCI-H226 lung)

Nc1nc2cc(-c3ccc4ncc(C(=O)N5CCOCC5)n4c3)ccc2o1
7.15 µM: TGI (MALME-3M melanoma)
36.7 µM: TGI (RXF 393 renal)
84.5 µM: TGI (SNB-19 CNS)
73.3 µM: TGI (SF-539 CNS)
inactive: GI50 (UO-31 renal) 2.09 µM | GI50 (OVCAR-4 ovarian) 6.07 µM | GI50 (EKVX NSCLC) 4.26 µM | GI50 (K-562 leukemia) 47 µM | GI50 (SK-MEL-5 melanoma) 3.95 µM | GI50 (LOX IMVI melanoma) 4.74 µM | GI50 (CCRF-CEM leukemia) 8.74 µM | GI50 (A549 NSCLC) 4.86 µM | GI50 (HL-60(TB) leukemia) 2.95 µM | GI50 (RXF 393 renal) 5.51 µM | GI50 (SF-295 CNS) 5.53 µM | GI50 (DU-145 prostate) 9.09 µM | GI50 (UACC-257 melanoma) 7.8 µM | GI50 (SK-MEL-28 melanoma) 5.4 µM | GI50 (HOP-92 NSCLC) 1.35 µM | GI50 (TK-10 renal) 2.41 µM | GI50 (HT29 colon) 3.52 µM | GI50 (U251 CNS) 11.1 µM | GI50 (MOLT-4 leukemia) 4.15 µM | GI50 (SNB-19 CNS) 15.4 µM | GI50 (HCC-2998 colon) 10 µM | GI50 (NCI-H522 lung) 7.13 µM | GI50 (SK-OV-3 ovarian) 1.59 µM | GI50 (RPMI-8226 leukemia) 6.36 µM | GI50 (ACHN renal) 4.28 µM | GI50 (IGROV1 ovarian) 1.74 µM | GI50 (MDA-MB-231 breast) 4.89 µM | GI50 (COLO 205 colon) 3.44 µM | GI50 (NCI-H23 lung) 6.58 µM | GI50 (SF-539 CNS) 9.81 µM | GI50 (SN12C renal) 6.66 µM | GI50 (KM12 colon) 14.4 µM | GI50 (OVCAR-8 ovarian) 13.4 µM | GI50 (786-0 renal) 14.6 µM | GI50 (HS 578T breast) 3.36 µM | GI50 (MDA-MB-435) 5.71 µM | GI50 (MCF7 breast) 1.39 µM | GI50 (NCI/ADR-RES ovarian) 44.6 µM | GI50 (HCT-116 colon) 4.4 µM | GI50 (UACC-62 melanoma) 4.14 µM | GI50 (HOP-62 NSCLC) 4.23 µM | GI50 (HCT-15 colon) 5.4 µM | GI50 (OVCAR-5 ovarian) 2.74 µM | GI50 (NCI-H226 lung) 5.2 µM | GI50 (SK-MEL-2 melanoma) 5.33 µM | GI50 (SNB-75 CNS) 0.916 µM | GI50 (BT-549 breast) 4.39 µM | GI50 (OVCAR-3 ovarian) 13.9 µM | GI50 (SR leukemia) 2.85 µM | GI50 (M14 melanoma) 4.64 µM | GI50 (MALME-3M melanoma) 1.23 µM | GI50 (SF-268 CNS) 9.82 µM | GI50 (PC-3 prostate) 3.19 µM | GI50 (SW-620 colon) 10.8 µM
60.9 µM: TGI (HL-60(TB) leukemia)
50.7 µM: TGI (SK-MEL-5 melanoma)
6.6 µM: TGI (IGROV1 ovarian)
15.7 µM: TGI (SNB-75 CNS)
> 100 µM: TGI (OVCAR-4 ovarian) | TGI (EKVX NSCLC) | TGI (K-562 leukemia) | TGI (LOX IMVI melanoma) | TGI (CCRF-CEM leukemia) | TGI (A549 NSCLC) | TGI (DU-145 prostate) | TGI (UACC-257 melanoma) | TGI (SK-MEL-28 melanoma) | TGI (HT29 colon) | TGI (HCC-2998 colon) | TGI (RPMI-8226 leukemia) | TGI (ACHN renal) | TGI (COLO 205 colon) | TGI (NCI-H23 lung) | TGI (SN12C renal) | TGI (KM12 colon) | TGI (OVCAR-8 ovarian) | TGI (786-0 renal) | TGI (MDA-MB-435) | TGI (MCF7 breast) | TGI (NCI/ADR-RES ovarian) | TGI (HCT-116 colon) | TGI (UACC-62 melanoma) | TGI (HCT-15 colon) | TGI (OVCAR-5 ovarian) | TGI (NCI-H226 lung) | TGI (OVCAR-3 ovarian) | TGI (SR leukemia) | TGI (M14 melanoma) | TGI (SF-268 CNS) | TGI (PC-3 prostate) | TGI (SW-620 colon)
80.3 µM: TGI (U251 CNS)
27.5 µM: TGI (TK-10 renal)
88.5 µM: TGI (NCI-H522 lung)
30 µM: TGI (HS 578T breast)
35.6 µM: TGI (UO-31 renal)
37.9 µM: TGI (BT-549 breast)
49.3 µM: TGI (HOP-62 NSCLC)
74.9 µM: TGI (MOLT-4 leukemia)
67.9 µM: TGI (MDA-MB-231 breast)
7.16 µM: TGI (SK-OV-3 ovarian)
64.8 µM: TGI (SF-295 CNS)
3.52 µM: TGI (T-47D breast)
9.53 µM: TGI (HOP-92 NSCLC)
46.8 µM: TGI (SK-MEL-2 melanoma)
active: GI50 (T-47D breast) 0.417 µM
